Results from PubChem BioAssay AID256 (DTP/NCI, 2004).
Where “and” joins values, the source holds several entries; their conditions need not be identical. Equal entries are not always repeated. Toxic doses and inconclusive results are not listed.

Test system: CD2F1 mice, L1210 leukemia ip, survival T/C
Assay: NCI In Vivo Anticancer Drug Screen. Data for tumor model L1210 Leukemia (intraperitoneal) in CD2F1 (CDF1) mice
Conditions: higher = longer survival
Outline: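 Antitumor effect is scored in animals hosting a serially transplanted tumor. Values compare compound-dosed animals against vehicle-only controls as a simple quotient.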

[1] = endpoint: mean survival time, dose: 100.0 mg/kg/injection, schedule: Q01DX009 (ip), vehicle: saline
[2] = endpoint: mean survival time, dose: 200.0 mg/kg/injection, schedule: Q01DX009 (ip), vehicle: saline
[3] = endpoint: mean survival time, dose: 100.0 mg/kg/injection, schedule: Q01DX009 (ip), vehicle: saline with Tween-80
[4] = endpoint: mean survival time, dose: 200.0 mg/kg/injection, schedule: Q01DX009 (ip), vehicle: saline with Tween-80
[5] = endpoint: mean survival time, dose: 400.0 mg/kg/injection, schedule: Q01DX009 (ip), vehicle: saline with Tween-80
[6] = endpoint: mean survival time, dose: 12.5 mg/kg/injection, schedule: Q01DX009 (ip), vehicle: saline
[7] = endpoint: mean survival time, dose: 100.0 mg/kg/injection, schedule: Q04DX003 (ip), vehicle: saline with Tween-80
[8] = endpoint: mean survival time, dose: 200.0 mg/kg/injection, schedule: Q04DX003 (ip), vehicle: saline with Tween-80
[9] = endpoint: mean survival time, dose: 400.0 mg/kg/injection, schedule: Q04DX003 (ip), vehicle: saline with Tween-80
[10] = endpoint: mean survival time, dose: 25.0 mg/kg/injection, schedule: Q01DX009 (ip), vehicle: saline with Tween-80
[11] = endpoint: mean survival time, dose: 25.0 mg/kg/injection, schedule: Q01DX009 (ip), vehicle: saline
[12] = endpoint: mean survival time, dose: 50.0 mg/kg/injection, schedule: Q01DX009 (ip), vehicle: saline with Tween-80
[13] = endpoint: mean survival time, dose: 50.0 mg/kg/injection, schedule: Q01DX009 (ip), vehicle: saline

For `CN(C(N)=O)C1CCCC1`, the T/C [1] was 102 % of control, the T/C [2] was 105 % of control and the T/C (endpoint: mean survival time, dose: 400.0 mg/kg/injection, schedule: Q01DX009 (ip), vehicle: saline) was 107 % of control.
In the case of `CCCCCCCCCCCCCCCC(=O)NCC[N+](C)(CC)CC`, the T/C (endpoint: mean survival time, dose: 75.0 mg/kg/injection, schedule: Q01DX001 (ip), vehicle: saline) is reported as 109 % of control.
`Nc1ncnc2c1ncn2C1OC(CO)C(=C(Br)Br)C1O` (stereo not drawn) was tested, and the T/C (endpoint: mean survival time, dose: 6.25 mg/kg/injection, schedule: Q01DX005 (ip), vehicle: distilled water + Tween-80) was 103 % of control, the T/C (endpoint: mean survival time, dose: 12.5 mg/kg/injection, schedule: Q01DX005 (ip), vehicle: distilled water + Tween-80) was 100 % of control and the T/C (endpoint: mean survival time, dose: 25.0 mg/kg/injection, schedule: Q01DX005 (ip), vehicle: distilled water + Tween-80) was 97 % of control. For the same compound, the T/C (endpoint: mean survival time, dose: 50.0 mg/kg/injection, schedule: Q01DX005 (ip), vehicle: distilled water + Tween-80) was 101 % of control and the T/C (endpoint: mean survival time, dose: 100.0 mg/kg/injection, schedule: Q01DX005 (ip), vehicle: distilled water + Tween-80) was 100 % of control.
In the case of `CCOC(=O)C(O)(C(=O)OCC)C(C)C`, the T/C [3] is reported as 94 % of control, the T/C [4] is reported as 100 % of control and the T/C [5] is reported as 94 % of control.
`Nc1cc(N)c2cccnc2c1O` was tested, and the T/C (endpoint: mean survival time, dose: 6.25 mg/kg/injection, schedule: Q01DX009 (ip), vehicle: saline) was 101 % of control and the T/C [6] was 114 % of control.
For `CCC[n+]1c(C)oc2ccc(-c3ccccc3)cc21`, the T/C [7] was 100 % of control and the T/C [8] was 101 % of control.
In the case of `CC(C)OC(=O)Nc1ccc(Cl)cc1`, the T/C [7] is reported as 97 % of control, the T/C [8] is reported as 97 % of control and the T/C [9] is reported as 100 % of control.
With `Cc1cc(C)c(CCc2c(C)cc(C)cc2C)c(C)c1` the T/C (endpoint: mean survival time, dose: 25.0 mg/kg/injection, schedule: Q04DX003 (ip), vehicle: saline with Tween-80) was 96 % of control, the T/C (endpoint: mean survival time, dose: 50.0 mg/kg/injection, schedule: Q04DX003 (ip), vehicle: saline with Tween-80) was 98 % of control and the T/C [3] was 89 % of control. The T/C [7] was 100 % of control, the T/C [4] was 96 % of control and the T/C [5] was 93 % of control.
For `CCCCCCCC/C=C\CCCCCCCCNC(C)=O`, the T/C [3] was 89 % of control and the T/C [4] was 89 % of control.
For `c1ccc2c(c1)oc1c3ccccc3c3ccccc3c21`, the T/C (endpoint: median survival time, dose: 25.0 mg/kg/injection, schedule: Q04DX002 (ip), vehicle: saline with Tween-80) was 110 % of control, the T/C (endpoint: median survival time, dose: 50.0 mg/kg/injection, schedule: Q04DX002 (ip), vehicle: saline with Tween-80) was 90 % of control and the T/C (endpoint: median survival time, dose: 100.0 mg/kg/injection, schedule: Q04DX002 (ip), vehicle: saline with Tween-80) was 110 % of control. For the same compound, the T/C (endpoint: median survival time, dose: 200.0 mg/kg/injection, schedule: Q04DX002 (ip), vehicle: saline with Tween-80) was 110 % of control.
For `COc1ccc(N2C(N)=NC(N)=NC2(C)C)cc1`, the T/C (endpoint: mean survival time, dose: 25.0 mg/kg/injection, schedule: Q04DX002 (ip), vehicle: saline) was 106 % of control and the T/C (endpoint: mean survival time, dose: 50.0 mg/kg/injection, schedule: Q04DX002 (ip), vehicle: saline) was 100 % of control.
`N#C/C(=C1C=C/C(=N\O)C(Cl)=C\1)c1ccccc1` was tested, and the T/C [3] was 103 % of control, the T/C [7] was 88 % of control and the T/C [4] was 88 % of control. The T/C [8] was 93 % of control and the T/C [9] was 96 % of control.
In the case of `CC1=C(/C=C/C(C)=C/C=C/C(C)=C/C=O)C(C)(C)CCC1`, the T/C (endpoint: median survival time, dose: 6.25 mg/kg/injection, schedule: Q01DX005 (ip), vehicle: saline with Tween-80) is reported as 105 % of control, the T/C (endpoint: median survival time, dose: 12.5 mg/kg/injection, schedule: Q01DX005 (ip), vehicle: saline with Tween-80) is reported as 100 % of control and the T/C (endpoint: median survival time, dose: 25.0 mg/kg/injection, schedule: Q01DX005 (ip), vehicle: saline with Tween-80) is reported as 97 % of control and 103 % of control. For the same compound, the T/C (endpoint: median survival time, dose: 50.0 mg/kg/injection, schedule: Q01DX005 (ip), vehicle: saline with Tween-80) was 100 % of control and 101 % of control and the T/C (endpoint: median survival time, dose: 100.0 mg/kg/injection, schedule: Q01DX005 (ip), vehicle: saline with Tween-80) was 104 % of control.
`CN(C)[C@@H]1C(=O)C(C(N)=O)=C(O)[C@@]2(O)C(=O)C3=C(O)c4c(O)ccc(Cl)c4[C@@](C)(O)[C@H]3C[C@@H]12` was tested, and the T/C (endpoint: mean survival time, dose: 12.5 mg/kg/injection, schedule: Q01DX009 (ip), vehicle: saline with Tween-80) was 98 % of control, the T/C [6] was 107 % of control and the T/C [10] was 97 % of control. For the same compound, the T/C [11] was 101 % of control, the T/C [12] was 93 % of control and 108 % of control and the T/C [13] was 103 % of control. For the same compound, the T/C [3] was 104 % of control and 111 % of control, the T/C [1] was 113 % of control and the T/C [4] was 102 % of control.
For `CCOC(=O)/C=C(\C)Sc1ccc(Cl)cc1`, the T/C (endpoint: mean survival time, dose: 100.0 mg/kg/injection, schedule: Q04DX003 (ip), vehicle: alcohol) was 92 % of control, the T/C (endpoint: mean survival time, dose: 200.0 mg/kg/injection, schedule: Q04DX003 (ip), vehicle: alcohol) was 87 % of control and the T/C (endpoint: mean survival time, dose: 400.0 mg/kg/injection, schedule: Q04DX003 (ip), vehicle: alcohol) was 102 % of control.
For `C=CCOCC1CO1` (stereo not drawn), the T/C [6] was 102 % of control and 103 % of control, the T/C [11] was 102 % of control and 111 % of control and the T/C [12] was 100 % of control. The T/C [13] was 98 % of control and 108 % of control, the T/C [3] was 97 % of control and the T/C [1] was 94 % of control and 104 % of control. The T/C [4] was 103 % of control, the T/C [2] was 114 % of control and 105 % of control and the T/C [5] was 105 % of control.
With `O=C(Cc1ccccc1)NCc1ccccc1` the T/C (endpoint: mean survival time, dose: 6.25 mg/kg/injection, schedule: Q01DX001 (ip), vehicle: saline) was 101 % of control, the T/C (endpoint: mean survival time, dose: 12.5 mg/kg/injection, schedule: Q01DX001 (ip), vehicle: saline) was 94 % of control and the T/C (endpoint: mean survival time, dose: 25.0 mg/kg/injection, schedule: Q01DX001 (ip), vehicle: saline) was 101 % of control.
In the case of `[Cl][Pt+2][Cl].[NH-]CC1CCCC[N-]1` (stereo not drawn), the T/C (endpoint: mean survival time, dose: 6.25 mg/kg/injection, schedule: Q04DX003 (ip), vehicle: distilled water + Tween-80) is reported as 121 % of control, the T/C (endpoint: mean survival time, dose: 12.5 mg/kg/injection, schedule: Q04DX003 (ip), vehicle: distilled water + Tween-80) is reported as 115 % of control and the T/C (endpoint: mean survival time, dose: 25.0 mg/kg/injection, schedule: Q04DX003 (ip), vehicle: distilled water + Tween-80) is reported as 150 % of control. The T/C (endpoint: mean survival time, dose: 50.0 mg/kg/injection, schedule: Q04DX003 (ip), vehicle: distilled water + Tween-80) was 123 % of control, the T/C (endpoint: mean survival time, dose: 200.0 mg/kg/injection, schedule: Q04DX003 (ip), vehicle: distilled water + Tween-80) was 91 % of control and the T/C (endpoint: median survival time, dose: 12.5 mg/kg/injection, schedule: Q04DX002 (ip), vehicle: saline) was 168 % of control. The T/C (endpoint: median survival time, dose: 25.0 mg/kg/injection, schedule: Q04DX002 (ip), vehicle: saline) was 158 % of control.
With `CC(c1ccc2ccccc2c1)C1CCCCC1C(=O)O` (stereo not drawn) the T/C [3] was 102 % of control, the T/C [4] was 100 % of control and the T/C [5] was 97 % of control.
In the case of `O=[N+]([O-])c1ccc(N2CCOCC2)c2c1no[n+]2[O-]`, the T/C (endpoint: median survival time, dose: 12.5 mg/kg/injection, schedule: Q01DX009 (ip), vehicle: saline with Tween-80) is reported as 117 % of control, the T/C (endpoint: median survival time, dose: 25.0 mg/kg/injection, schedule: Q01DX009 (ip), vehicle: saline with Tween-80) is reported as 112 % of control and the T/C (endpoint: median survival time, dose: 50.0 mg/kg/injection, schedule: Q01DX009 (ip), vehicle: saline with Tween-80) is reported as 108 % of control. The T/C (endpoint: median survival time, dose: 100.0 mg/kg/injection, schedule: Q01DX009 (ip), vehicle: saline with Tween-80) was 91 % of control.
`CN1CCc2cc3c(cc2C(=O)Cc2ccc4c(c2C1)OCO4)OCO3` was tested, and the T/C [10] was 98 % of control, the T/C [12] was 101 % of control and the T/C [3] was 103 % of control.
In the case of `CNC(=S)NCc1ccc(C(=O)NC(C)C)cc1`, the T/C (endpoint: mean survival time, dose: 50.0 mg/kg/injection, schedule: Q01DX009 (ip), vehicle: other) is reported as 97 % of control, the T/C (endpoint: mean survival time, dose: 100.0 mg/kg/injection, schedule: Q01DX009 (ip), vehicle: other) is reported as 95 % of control and the T/C (endpoint: mean survival time, dose: 200.0 mg/kg/injection, schedule: Q01DX009 (ip), vehicle: other) is reported as 100 % of control. For the same compound, the T/C (endpoint: mean survival time, dose: 400.0 mg/kg/injection, schedule: Q01DX009 (ip), vehicle: other) was 91 % of control.
